Data: patent US20250090557A1 (priority 2020, published 2025)

Tests used:
[1] = system: IL-6; assay type: cell-based, human
[2] = system: SARS-CoV-2; assay: Post-exposure prophylaxis in two household-exposed parents (case report); assay type: in vivo, human
Description: FIG. 8-a show the timeline of exposure, symptoms and diagnostic tests in household. Two parents [[…], A1 with history of chronic myelogenous leukemia (CML) and healthy parent 39 years, A2] were notified on Dec. 5, 2020 [defined as day 5 (D5)], that the schoolteacher (T1) of their child (C1) tested positive for SARS-CoV-2 and developed symptoms of Covid-19. C1 had 6-h exposure to T1 on November 30 (with masks) (D0). The family had no other exposure to any other person between November 20-30 (D-10 to D0) given Thanksgiving Day on November 26 (D-4). Several children and parents from the same school class were infected with Covid-19 within the first 2 weeks of December. C1 developed fever (100.4° F.;38° C.) and fatigue 2.5 days after exposure (DO) that lasted 3 days (D2-D5) and remained asymptomatic since then. The second child (C2) was asymptomatic until D12 when they developed fever (100.4° F.;38° C.), fatigue and coryza on D12-D14. A1 and A2 started Mito-MES on D4. […] A1, A2, C1 and C2 had fifteen (in total) negative NP SARS-CoV-2 PCR and each parent had 3 negative SARS-CoV-2 IgG serology over a period of 6 weeks (last NP PCR was on D42 and last SARS-CoV-2 IgG serology was on D45). The well-defined epidemiologic history around a major holiday and the timing (3-7 days) of development of symptoms in both children, confirmed that they both had Covid-19.
Two parents ([…], A1, and parent 39 years, A2) residing in Los Angeles, California were notified on Dec. 5, 2020 (defined as day 5 (D5); FIG. 8-a, C), that the schoolteacher (T1) of their child (C1) tested positive for SARS-CoV-2 and developed symptoms of Covid-19. C1 had 6-h exposure to T1 on November 30 (with masks) (DO). The family had no other exposure to any other person between November 20-30 (D-10 to DO) given Thanksgiving Day on November 26 (D-4). […]
One important consideration with COVID-19 testing is that it is often unclear how exactly the NP swab was obtained (by healthcare worker or not and whether the posterior or anterior nasopharynx were assessed). […]

COC1=C(OC)C(=O)C(CCCCCCCCCC[P+](c2ccccc2)(c2ccccc2)c2ccccc2)=C(C)C1=O.CS(=O)(=O)[O-] [Mito-MES, 10-(4,5-dimethoxy-2-methyl-3,6-dioxo-1,4-cyclohexadienyl) decyl triphenylphosphonium methanesulfonate]
secretion of IL-6 resulting from SARS-CoV-2 infection (ELISA) [1]: attenuated the increase in secretion of IL-6
inflammation markers in plasma ([2]; both parents, 6 timepoints over 6 weeks): normal CRP, ferritin and IL-6 plasma levels
plasma IgG to SARS-CoV-2 S1 protein ([2]; each parent, three timepoints over 5 weeks): undetectable levels of plasma IgG to SARS-CoV-2 S1 protein
symptoms and virological/serological confirmation of infection ([2]; two parents, 20 mg/day oral, 6 weeks, repeated household exposure): remained asymptomatic and without virological and serological confirmation of infection
